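Following 48 hours of exposure in 96-well plates, responses at five concentrations were used to interpolate endpoints linearly. The concentration for 50% growth inhibition is given as GI50.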 Activity calls are given as the source filed them. No stated cut-off is given here; in the data, active = GI50 up to about 1.1 µM and inactive = higher. Where only a bound is given, the exact number is not on record here.

Among the test systems are Malme-3M; HCT-15; OVCAR-5; SF-268; MOLT-4; IGROV-1; 786-0; UACC-257; RPMI-8226; SF-539; EKVX; SK-OV-3; KM12; COLO 205; K562; SW-620; SF-295; SNB-19; A498.
Common to all, as to experiment: inhibition of tumour cell growth, NCI panel, 48 h

Take `COC(=O)C1=C(C(=O)OC)C2(C3C(SC)=CC(C)(C)CC3S1)N(Cc1ccccc1)CCN2Cc1ccccc1` (centres undefined): the GI50 was > 100 µM (inactive) in the test on Malme-3M; over 100 µM in the test with HCT-15; > 100 µM (inactive) in the test on OVCAR-5; > 100 µM (inactive) in the test on SF-268; > 100 µM (inactive) in the test with MOLT-4; > 100 µM (inactive) in the test with IGROV-1. Besides, the GI50 in the test on 786-0 was > 100 µM (inactive); in the test with UACC-257 it was > 100 µM (inactive); in the test on RPMI-8226, 18.3 µM (inactive); in the test on SF-539, > 100 µM (inactive); in the test with EKVX, > 100 µM (inactive); with SK-OV-3, > 100 µM (inactive). Moreover, the GI50 in the test with KM12 is > 100 µM (inactive); with COLO 205, > 100 µM (inactive); in the test with K562 it was 62.7 µM (inactive); in the test on SW-620 it was > 100 µM (inactive); in the test with SF-295 it was > 100 µM (inactive); in the test with SNB-19, > 100 µM (inactive).
Regarding `CCCCCCCCCCCC(=O)C1=C(O)CC(O)CC1=O` (centres undefined), the GI50 in the test on OVCAR-5 was 68.7 µM (inactive); in the test with SF-268, > 100 µM (inactive); with MOLT-4, 88.1 µM (inactive); in the test on IGROV-1, > 100 µM (inactive); with 786-0, > 100 µM (inactive); with UACC-257 it was > 100 µM (inactive). Further, the GI50 is 87.3 µM (inactive) with RPMI-8226; > 100 µM (inactive) with SF-539; > 100 µM (inactive) in the test on EKVX; > 100 µM (inactive) in the test on SK-OV-3; 59.4 µM (inactive) in the test on KM12; > 100 µM (inactive) in the test on COLO 205. Besides, the GI50 in the test on K562 is 42.2 µM (inactive); with SW-620, > 100 µM (inactive); with SF-295, 84.1 µM (inactive); in the test on SNB-19, > 100 µM (inactive).
`CC(=O)c1c2c(cc3c1CC1(C3)Cc3cc4c(c(C(C)=O)c3C1)CCC4)CCC2`: the GI50 in the test on Malme-3M was 40.3 µM (inactive); with OVCAR-5, > 100 µM (inactive); in the test on SF-268 it was > 100 µM (inactive); in the test with MOLT-4, 73.1 µM (inactive); in the test with IGROV-1, > 100 µM (inactive); in the test with 786-0, > 100 µM (inactive). Also, the GI50 was > 100 µM (inactive) in the test with UACC-257; > 100 µM (inactive) with SF-539; > 100 µM (inactive) in the test on KM12; > 100 µM (inactive) in the test on COLO 205; 38 µM (inactive) in the test on K562; > 100 µM (inactive) in the test with SW-620. Further, the GI50 in the test with SF-295 and with SNB-19 was > 100 µM (inactive) each time.
Turning to `CCOC(=O)C1C(=S)NC(=O)C1C#N` (centres undefined), the GI50 was > 100 µM (inactive) in the test with Malme-3M; over 100 µM in the test with HCT-15; > 100 µM (inactive) in the test on OVCAR-5; > 100 µM (inactive) in the test with SF-268; > 100 µM (inactive) in the test on MOLT-4; > 100 µM (inactive) in the test with IGROV-1. Also, the GI50 in the test on 786-0, in the test with UACC-257, with RPMI-8226, in the test on SF-539, with EKVX and in the test with SK-OV-3 was > 100 µM (inactive) in each case. For the same compound, the GI50 in the test with KM12, in the test with COLO 205, in the test on K562, with SW-620, with SF-295 and in the test on SNB-19 was > 100 µM (inactive) in each case.
As to `CNCCCCN(C)/[N+]([O-])=N\O`, the GI50 in the test with Malme-3M is > 100 µM (inactive); with HCT-15, over 100 µM; in the test on OVCAR-5, > 100 µM (inactive); in the test with SF-268 it was > 100 µM (inactive); with MOLT-4, > 100 µM (inactive); in the test on IGROV-1 it was > 100 µM (inactive). Also, the GI50 with 786-0, with UACC-257, in the test with RPMI-8226, in the test on SF-539, in the test with EKVX and with SK-OV-3 was > 100 µM (inactive) each time. The GI50 in the test with KM12, with COLO 205, with K562, in the test on SW-620, with SF-295 and in the test with SNB-19 was > 100 µM (inactive) in each case.
For `CC(C)(c1cn(Cc2ccccc2)c2ccccc12)c1cn(Cc2ccccc2)c2ccccc12`, the GI50 in the test on Malme-3M was 1.94 µM (inactive); with HCT-15 it was over 100 µM; with OVCAR-5 it was > 100 µM (inactive); with SF-268, > 100 µM (inactive); with MOLT-4, > 100 µM (inactive); in the test on IGROV-1 it was > 100 µM (inactive). Moreover, the GI50 with 786-0, in the test on RPMI-8226, in the test with SF-539, with EKVX, in the test on SK-OV-3 and in the test with KM12 was > 100 µM (inactive) throughout. For the same compound, the GI50 in the test with COLO 205, in the test with K562, in the test with SW-620 and in the test on SF-295 was > 100 µM (inactive) in each case.
Consider `CC(SC(=O)Nc1ccc(/N=N/c2ccccc2)cc1)C(=O)O` (centres undefined), for which the GI50 in the test on HCT-15 was over 100 µM; in the test on OVCAR-5, > 100 µM (inactive); in the test with SF-268, 17.3 µM (inactive); in the test with MOLT-4 it was 34 µM (inactive); with IGROV-1, 24.3 µM (inactive); in the test with 786-0, 79.8 µM (inactive). The GI50 is 98.6 µM (inactive) in the test with UACC-257; > 100 µM (inactive) in the test on RPMI-8226; 88.5 µM (inactive) in the test with SF-539; > 100 µM (inactive) with EKVX; 54.3 µM (inactive) in the test on KM12; > 100 µM (inactive) in the test with A498. Further, the GI50 in the test with COLO 205 is > 100 µM (inactive); in the test with K562 it was > 100 µM (inactive); in the test with SW-620, > 100 µM (inactive); in the test on SF-295 it was 56.4 µM (inactive); with SNB-19, > 100 µM (inactive).
Regarding `CC1CCC2CC(=O)OC([C@@H]3C(=O)O[C@@H](C4=CCCC4)C4C(C)CCC43)C12` (some centres undefined), the GI50 in the test with Malme-3M is > 100 µM (inactive); in the test on HCT-15, 48.2 µM; with SF-268, > 100 µM (inactive); with MOLT-4, 36.2 µM (inactive); in the test with IGROV-1, 80.2 µM (inactive); in the test on 786-0 it was > 100 µM (inactive). For the same compound, the GI50 in the test on UACC-257 is > 100 µM (inactive); in the test with RPMI-8226 it was 37.2 µM (inactive); with SF-539, > 100 µM (inactive); in the test on EKVX it was > 100 µM (inactive); in the test on SK-OV-3 it was > 100 µM (inactive); with KM12, 42 µM (inactive). Besides, the GI50 with COLO 205 was 32.4 µM (inactive); in the test on K562, 43.7 µM (inactive); in the test with SW-620, 70 µM (inactive); in the test with SF-295, 79.1 µM (inactive); with SNB-19, > 100 µM (inactive).
Regarding `Nc1ncnc2sc(Nc3ccccc3)nc12`, the GI50 in the test on Malme-3M was > 100 µM (inactive); with HCT-15, over 100 µM; with OVCAR-5 it was > 100 µM (inactive); in the test with SF-268, > 100 µM (inactive); in the test on MOLT-4 it was > 100 µM (inactive); in the test with IGROV-1, 32.2 µM (inactive). The GI50 in the test on 786-0 was 26.5 µM (inactive); with UACC-257, > 100 µM (inactive); with RPMI-8226, > 100 µM (inactive); in the test with SF-539, > 100 µM (inactive); in the test on SK-OV-3, 46.2 µM (inactive); in the test on KM12 it was > 100 µM (inactive). The GI50 is > 100 µM (inactive) in the test on COLO 205; 22.6 µM (inactive) in the test with K562; > 100 µM (inactive) in the test on SW-620; > 100 µM (inactive) with SF-295; > 100 µM (inactive) with SNB-19.
Consider `COc1ccc(-c2cc(=O)c3ccc(O)cc3o2)c(OC)c1OC`, for which the GI50 in the test with Malme-3M was > 100 µM (inactive); in the test on OVCAR-5, > 10 µM (inactive); in the test on SF-268, 41.3 µM (inactive); in the test with IGROV-1 it was > 100 µM (inactive); in the test with 786-0, 79.3 µM (inactive); in the test on UACC-257 it was 94 µM (inactive). The GI50 in the test on RPMI-8226 was 18.9 µM (inactive); in the test on SF-539, 46 µM (inactive); with EKVX it was 87.3 µM (inactive); in the test with SK-OV-3, 90.6 µM (inactive); with KM12 it was 71.1 µM (inactive); with COLO 205, 95.9 µM (inactive). The GI50 in the test with K562 was 29.6 µM (inactive); in the test with SW-620, 48 µM (inactive); in the test on SF-295 it was 46.5 µM (inactive); in the test on SNB-19, 65 µM (inactive).
Consider `Cc1ccc(S(=O)(=O)C(CC(=O)N2CCCC2)C(=O)c2ccccc2)cc1` (centres undefined), for which the GI50 is > 100 µM (inactive) in the test on Malme-3M; > 100 µM (inactive) in the test with OVCAR-5; 83.4 µM (inactive) in the test with SF-268; 25.6 µM (inactive) in the test with MOLT-4; > 100 µM (inactive) with IGROV-1; > 100 µM (inactive) in the test on 786-0. Moreover, the GI50 is > 100 µM (inactive) in the test with UACC-257; > 100 µM (inactive) in the test with SF-539; > 100 µM (inactive) in the test on KM12; > 100 µM (inactive) in the test on COLO 205; 24.9 µM (inactive) with K562; 37.7 µM (inactive) in the test with SW-620. Further, the GI50 in the test on SF-295 and with SNB-19 was > 100 µM (inactive) throughout.
Regarding `CC(C)(C)c1cc2nc(c1)C(C(F)(F)F)(C(F)(F)F)OB(Br)OC2(C(F)(F)F)C(F)(F)F`, the GI50 is 0.617 µM (active) in the test on Malme-3M; 0.0299 µM in the test on HCT-15; 0.0532 µM (active) with OVCAR-5; 3.01 µM (inactive) in the test on SF-268; < 0.01 µM (active) in the test on MOLT-4; 0.0269 µM (active) in the test on IGROV-1. Also, the GI50 in the test with 786-0 was 0.115 µM (active); with UACC-257, < 0.01 µM (active); in the test on RPMI-8226, 0.0607 µM (active); in the test with SF-539 it was 0.316 µM (active); with EKVX, < 0.01 µM (active); with SK-OV-3 it was 1.3 µM (inactive). Moreover, the GI50 in the test on KM12 was < 0.01 µM (active); with COLO 205, < 0.01 µM (active); with K562, 0.0434 µM (active); with SW-620 it was < 0.01 µM (active); in the test on SF-295, 0.0834 µM (active); with SNB-19, 0.156 µM (active).

The values above are taken from ChEMBL document CHEMBL1201862, “PubChem BioAssay data set” (2004).
